Measurements taken from patent US12280043B2, “Sustained-release anesthetic compositions and methods of preparation thereof” (TLC Biopharmaceuticals, Inc., priority 2017, dated 2025).

Assays:
paw incision mouse model = test: Anesthetic effect in a paw incision mouse model (von Frey mechanical threshold); assay type: in vivo, C57/BL6 mice; details: 0.18 mg ropivacaine per incision
Protocol: Wild type male C57/BL6 mice (8-week-old, Envigo) were used for evaluating the anesthetic efficacy after paw incision as described in Anesthesiology, 2003 October; 99 (4): 1023-7 and J. Neurosci Methods. 1994 July; 53 (1): 55-63. […] Baseline (T=−2 hours) mechanical (von Frey) thresholds of 32 mice were taken prior to surgery; baseline thresholds were measured on the mouse's left hind paw. All 32 mice received a plantar incision (5 mm long and […]) on their left hind paw. Two-hours post-surgery (T=0 hour), the mechanical threshold of each mouse was reassessed and the presence of mechanical allodynia in each mouse was confirmed. Thirty-two mice were randomized into 4 groups (8 mice per group). […] The 50% paw withdrawal threshold of each mouse was obtained using the up-down method at baseline time point (−2), and the designated time points (0, 1, 2, 3, 4, 5, 6, 8, and 24 hours) after SC injection treatment. […] The average 50% withdrawal threshold for each treatment group was graphed; data presented as a withdrawal threshold (g) were plotted against time (FIG. 2A). To account for variability among the baseline mechanical sensitivities of individual mice, each mouse's 50% paw withdrawal thresholds after surgery and treatment were normalized to its own baseline 50% withdrawal threshold (T=−2 hours). […]

[1] = pKa and ionisation state stated in text; assay type: physicochemical; details: at pH 6.0, calculation from pKa
[2] = Pharmacokinetic study after single SC injection; assay type: in vivo, Sprague-Dawley rats
Protocol: Jugular vein cannulated (JVC) female Sprague-Dawley rats were used for a pharmacokinetic (PK) study. The rats were housed in a holding room that operates on a 12-hr light/12-hr dark circadian cycle and that provides free access to water and food. […] Blood samples were collected at 15 min, 1 hour, 2 hours, 4 hours, 8 hours, 24 hours, 48 hours, and 72 hours post-injection. Plasma samples were obtained by centrifugation and were kept frozen at −80° C. until analysis. PK data obtained from the samples were analyzed using a noncompartmental model (WinNonlin® software).

[3] = female, Sprague-Dawley, rat, plasma, sc, 20 mg/kg

## CCCN1CCCC[C@H]1C(=O)Nc1c(C)cccc1C [Ropivacaine, ropivacaine]
Paw incision mouse model; SC
  analgesia compared to vehicle group: some degree of analgesia
Paw incision mouse model; T=1 hour after SC injection, increased from 0.04 g
  withdrawal threshold at the first time point: 0.22 g
[1]
  theoretically uncharged ropivacaine, of available ropivacaine: 0.8%
[2]; [3]
  Cmax: 802 ± 208 ng/mL
  half-life: 3.1 ± 1.4 h
[2]; female, Sprague-Dawley, rat, plasma, sc, 20 mg/kg, read-out: AUC0-4
  AUC(0-t): 4040 ± 632 ng·h/mL
[2]; rats, single SC, same dosage 20.0 mg/kg
  time until which ropivacaine could be detected in the plasma: ≤ 24 h
